Measurements reported in patent US9000028B2, “Indole and indazole compounds as an inhibitor of cellular necrosis” (LG Life Sciences Ltd., priority 2007, dated 2015).
Where two headings read alike, the source gives them in different places.

Test system: primary hepatocytes isolated from rats
Assay: Hepatocyte protective effect against substances deriving hepatocyte toxicity (WST-1 viability)
Format: cell-based
Conditions: doxorubicin, 24-48 h, read-out: EC50, cell protective effects against doxorubicin in hepatocytes
Procedure: Various endogenous/exogenous attacks on the cells trigger the mechanisms of cell death which is broadly classified into two types, i.e. apoptosis or necrosis. Using these cell death mechanisms, in the present experimental example, primary hepatocytes isolated from rats were treated with drugs which were clinically shown to result in serious side-effects of hepatocyte toxicity or various chemicals which derive cell death, and the compounds synthesized in the Examples were estimated for their hepatocyte protective effects, after 24-48 h. The substances used to derive hepatocyte death include CCl4, ActD, H2O2, doxorubicin, anti-Fas Ab/Actinomycin D, acetaminophen, EtOH, CdCl2, palmitate, stearate, cyclophosphamide, terfenadine, diclofenac, simvastatin, and adefovir. Primary hepatocytes were isolated using the method of Seglen PO (Experimental Cell Research 74 (1972) pp 450-454). Briefly, hepatocytes were isolated according to the two-step collagenase perfusion method, and dead cells were removed by low speed (500 rpm) centrifugation for 10 min using percoll gradient (Kreamer B L etc, In Vitro Cellular & Developmental Biology 22 (1986) pp 201-211). During this step, the viability of cells was maintained 90% or above. The cells were suspended in HepatoZYME media (Gibco BRL), and the number of cells was counted. 1.5×10^4 cells in 100 μl were placed into the collagen-coated 96-well plate (BD biocoat), and adhered on the bottom for 3-4 h.
In order to assess the hepatocyte protective effect, above adhered cells were pretreated with the Example compounds for 30 min. At this time, the concentration of the Example compounds were serially diluted by 2-fold or 3-fold over 5 steps starting from 30 uM, 10 uM or 1 uM depending on the experiments, and the final concentration of DMSO was adjusted to 0.2%. 30 min after the treatment by compounds, cells were treated by the substances deriving hepatocyte death or hepatotoxic drugs at the concentrations indicated in Table 1. After 24-48 h, the viability of cells was determined to estimate the hepatocyte protective effects. The viability of cells was determined using WST-1 (MK-400, […]) method by the absorbance at 440 nm. Hepatocyte protective effects of the Example compounds were represented by “EC50,” which was calculated from measured values. “EC50” herein means the concentration of the compound at which 50% of maximum protective effect is observed in the experiment.

SMILES | EC50 (Rattus norvegicus, Hepatocyte) | EC50 (rat primary hepatocytes)
Clc1cc(NC2CCC3(CC2)OCCO3)c2[nH]c(-c3ccccc3)cc2c1 [Example 53, (1,4-Dioxaspiro[4.5]decan-8-yl)-(5-chloro-2-phenyl-1H-indol-7-yl)-amine] | 40 nM | –
c1ccc(Oc2cc(NC3CCOCC3)c3[nH]c(-c4ccccc4)cc3c2)cc1 [Example 62, (Tetrahydropyran-4-yl)-(5-phenoxy-2-phenyl-1H-indol-7-yl)-amine] | 110 nM | –
Cc1cc(NC2CCCC2)c2[nH]c(-c3ccccc3)c(C)c2c1 [Example 40, Cyclopentyl-[3,5-dimethyl-2-phenyl-1H-indol-7-yl]-amine] | 200 nM | –
Cc1cc(NC2CCCC2)c2[nH]ncc2c1 [Example 155, Cyclopentyl-(5-methyl-1H-indazol-7-yl)-amine] | 1300 nM | –
O=S1(=O)CCN(Cc2cc(N(CC3CCOCC3)CC3CCOCC3)c3[nH]c(-c4ccccc4)cc3c2)CC1 [Example 57, Di(tetrahydropyran-4-ylmethyl)-[2-phenyl-5-(1,1-dioxo-thiomorpholin-4-yl)methyl-1H-indol-7-yl]amine] | 270 nM | –
Cc1cc(NC2CCN(C)CC2)c2[nH]c(-c3ccccn3)cc2c1 [Example 13, (1-Methylpiperidin-4-yl)-[5-methyl-2-(pyridin-2-yl)-1H-indol-7-yl]-amine] | 400 nM | –
c1cc(NC2CCOCC2)c2[nH]ncc2c1 [Example 154, (Tetrahydropyran-4-yl)-(1H-indazol-7-yl)-amine] | 4200 nM | –
OCc1ccc(-c2cc3cc(Cl)cc(NC4CCCC4)c3[nH]2)cc1 [Example 136, [4-(5-Chloro-7-cyclopentylamino-1H-indol-2-yl)-phenyl]-methanol] | 50 nM | –
Cc1cc(N(C)C2CCCC2)c2[nH]c(-c3ccccn3)cc2c1 [Example 27, Cyclopentyl-methyl-[5-methyl-2-(pyridin-2-yl)-1H-indol-7-yl]-amine] | 2400 nM | –
CC(=O)N1CCN(Cc2cccc(-c3cc4cc(Cl)cc(NC5CCOCC5)c4[nH]3)c2)CC1 [Example 150, 1-{4-[3-(5-Chloro-7-tetrahydropyran-4-ylamino-1H-indol-2-yl)-benzyl]-piperazin-1-yl}-ethanone] | 160 nM | –
Cc1cc(NC2CCN(C)CC2)c2[nH]c(-c3ccccc3)cc2c1 [Example 44, (1-Methylpiperidin-4-yl)-(5-methyl-2-phenyl-1H-indol-7-yl)-amine] | 170 nM | –
O=C1CN(Cc2c(-c3ccccc3)[nH]c3c(NC4CCCC4)cc(Cl)cc23)CCN1 [Example 70, Cyclopentyl-(5-chloro-3-(2-oxo-piperazin-4-yl)methyl-2-phenyl-1H-indol-7-yl)-amine] | 256 nM | –
Clc1cc(NC2CCCC2)c2[nH]c(-c3ccccc3)c(CN3CCOCC3)c2c1 [Example 67, Cyclopentyl-(5-chloro-3-(morpholin-4-yl)methyl-2-phenyl-1H-indol-7-yl)-amine] | < 130 nM | –
Clc1cc(NCC2CCOCC2)c2[nH]cc(-c3ccccc3)c2c1 [Example 81, (Tetrahydropyran-4-yl)methyl-(5-chloro-3-phenyl-1H-indol-7-yl)-amine] | 110 nM | –
COc1ccc(-c2cc3cc(CN4CCS(=O)(=O)CC4)cc(NC4CCOCC4)c3[nH]2)cc1 [Example 39, (Tetrahydropyran-4-yl)-[2-(4-methoxy)phenyl-5-(1,1-dioxo-thiomorpholin-4-yl)methyl-1H-indol-7-yl]amine] | – | 330 nM
CS(=O)(=O)Nc1ccc(-c2cc3cc(Cl)cc(NC4CCCC4)c3[nH]2)cc1 [Example 84, N-[4-(5-chloro-7-cyclopentylamino-1H-indol-2-yl)-phenyl]methanesulfonamide] | 90 nM | –
Brc1c(-c2ccccc2)[nH]c2c(NC3CCOCC3)cc(CN3CCOCC3)cc12 [Example 162, (Tetrahydropyran-4-yl)-[3-bromo-5-(morpholin-4-yl)methyl-2-phenyl-1H-indol-7-yl]-amine] | 700 nM | –
COc1ccc(-c2n[nH]c3c(NC4CCCC4)cccc23)cc1 [Example 157, Cyclopentyl-[3-(4-methoxyphenyl)-1H-indazol-7-yl)-amine] | 900 nM | –
Nc1ccc(-c2cc3cc(Cl)cc(NC4CCCC4)c3[nH]2)cc1 [Example 82, Cyclopentyl-[2-(4-aminophenyl)-5-chloro-1H-indol-7-yl]-amine] | 70 nM | –

SMILES | EC50 (Rattus norvegicus, Hepatocyte) | EC50 (rat primary hepatocytes)
CN(C)c1cc(Cl)cc2cc(-c3ccccc3)n(C)c12 [Example 65, Dimethyl-(5-chloro-1-methyl-2-phenyl-1H-indol-7-yl)amine] | 600 nM | –
O=C1CN(Cc2cc(NC3CCCC3)c3[nH]c(-c4cccc(F)c4)cc3c2)CCN1 [Example 38, Cyclopentyl-[2-(3-fluoro)phenyl-5-(2-oxo-piperazin-4-yl)methyl-1H-indol-7-yl]amine] | – | 110 nM
Cc1cc(N(C)C)c2[nH]c(-c3ccccn3)cc2c1 [Example 17, Dimethyl-[5-methyl-2-(pyridin-2-yl)-1H-indol-7-yl]-amine] | 540 nM | –
O=C(O)Cc1ccc(-c2cc3cc(Cl)cc(NC4CCOCC4)c3[nH]2)cc1 [Example 141, 2-{4-[5-Chloro-7-(tetrahydropyran-4-yl)amino-1H-indol-2-yl]phenyl}-acetic acid] | 460 nM | –
O=S1(=O)CCN(Cc2cc(NC3CCOCC3)c3[nH]c(-c4cccc(F)c4)cc3c2)CC1 [Example 75, (Tetrahydropyran-4-yl)-(5-(1,1-dioxo-thiomorpholin-4-yl)methyl-2-(3-fluorophenyl)-1H-indol-7-yl)-amine] | 120 nM | –
O=S1(=O)CCN(Cc2cc(NC3CCOCC3)c3[nH]c(-c4ccccc4)cc3c2)CC1 [Example 36, (Tetrahydropyran-4-yl)[2-phenyl-5-(1,1-dioxo-thiomorpholin-4-yl)methyl-1H-indol-7-yl]amine] | 63 nM | –
OCc1ccccc1-c1cc2cc(Cl)cc(NC3CCCC3)c2[nH]1 [Example 133, [2-(5-Chloro-7-cyclopentylamino-1H-indol-2-yl)-phenyl]-methanol] | 150 nM | –
Clc1cc(NC2CCOCC2)c2[nH]c(-c3cccc(CN4CCOCC4)c3)cc2c1 [Example 148, [5-Chloro-2-(3-morpholin-4-ylmethylphenyl)-1H-indol-7-yl]-(tetrahydropyran-4-yl)-amine] | 160 nM | –
O=C(O)C1CCC(Nc2cc(Cl)cc3cc(-c4ccccc4)[nH]c23)CC1 (centres unmarked) [Example 102, 4-(5-Chloro-2-phenyl-1H-indol-7-yl)amino-cyclohexane-1-carboxylic acid] | 300 nM | –
OCc1cccc(-c2cc3cc(Cl)cc(NC4CCOCC4)c3[nH]2)c1 [Example 126, {3-[5-Chloro-7-(tetrahydropyran-4-yl)amino-1H-indol-2-yl]-phenyl}-methanol] | 200 nM | –
O=C(O)Cc1cc(NC2CCCC2)c2[nH]c(-c3ccccc3)cc2c1 [Example 33, 2-[7-(Cyclopentyl)amino-2-phenyl-1H-indol-5-yl]acetic acid] | 150 nM | –
O=C1CN(Cc2c(-c3ccccc3)[nH]c3c(NC4CCOCC4)cc(Cl)cc23)CCN1 [Example 69, (Tetrahydropyran-4-yl)-(5-chloro-3-(2-oxo-piperazin-4-yl)methyl-2-phenyl-1H-indol-7-yl)-amine] | 355 nM | –
O=S1(=O)CCN(Cc2cc(NC3CCCC3)c3[nH]c(-c4ccccc4)c(Br)c3c2)CC1 [Example 73, Cyclopentyl-(3-bromo-5-(1,1-dioxo-thiomorpholin-4-yl)methyl-2-phenyl-1H-indol-7-yl)-amine] | 120 nM | –
Cc1cc(NC2CCCCC2)c2[nH]c(-c3ccccn3)cc2c1 [Example 11, Cyclohexyl-[5-methyl-2-(pyridin-2-yl)-1H-indol-7-yl]-amine] | 100 nM | –
COC(=O)Cc1ccc(-c2cc3cc(Cl)cc(NCC4CCOCC4)c3[nH]2)cc1 [Example 144, 2-{4-[5-Chloro-7-(tetrahydropyran-4-ylmethyl)amino-1H-indol-2-yl]phenyl}-acetic acid methyl ester] | 300 nM | –
O=S1(=O)CCN(Cc2cc(NCC3CCNCC3)c3[nH]c(-c4ccccc4)cc3c2)CC1 [Example 96, [5-(1,1-Dioxo-thiomorpholin-4-yl)methyl-2-phenyl-1H-indol-7-yl]-(piperidin-4-yl)methyl-amine] | 120 nM | –
O=C(O)Cc1cccc(-c2cc3cc(Cl)cc(NC4CCCC4)c3[nH]2)c1 [Example 128, 2-[3-(5-Chloro-7-cyclopentylamino-1-H-indol-2-yl)-phenyl]-acetic acid] | – | 170 nM
Clc1cc(NCC2CCOCC2)c2[nH]c(-c3ccccc3)cc2c1 [Example 50, (Tetrahydropyran-4-ylmethyl)-(5-chloro-2-phenyl-1H-indol-7-yl)-amine] | 43 nM | –
CNC(=O)C1CCC(Nc2cc(Cl)cc3cc(-c4ccccc4)[nH]c23)CC1 (centres unmarked) [Example 105, 4-(5-Chloro-2-phenyl-1H-indol-7-yl)amino-cyclohexanecarboxylic acid methylamide] | 70 nM | –
